Assays:
[1] = tested on: B. subtilis strain NCBI3610; assay: Biofilm (pellicle) inhibition assay, B. subtilis in liquid biofilm-inducing medium; type: cell-based, Bacillus subtilis; conditions: for concentration above which inhibition of biofilm formation is observed: B. subtilis pellicle formation; for inhibition of pellicle formation at 50 μM: cells diluted 1:1000 in biofilm media, final concentration 50 μM; for minimal effective concentration: Bacillus subtilis, NCBI3610, read-out: MBIC- Minimal Biofilm Inhibitory Concentration; for biofilm-inhibitory activity against B. subtilis: structure-activity
Description: Bacillus subtilis strains PY79, 3610 and their derivatives were grown in Luria-Bertani (LB) medium at 37° C. or MSgg medium (1) at 23° C. Solid media contained 1.5% Bacto agar. When appropriate, antibiotics were added at the following concentrations for growth of B. subtilis: 10 μg per ml of tetracycline, and 5 μg per ml of erythromycin, 500 μg per ml of spectinomycin.
B. subtilis strain NCBI3610 was grown at 22° C. in 12-well plates in liquid biofilm-inducing medium for 3 or 8 days. Conditioned medium (500 ml) from an 8-day-old culture was concentrated on the C-18 column and eluted step-wise with methanol. […]
Pellicle formation of strain NCBI 3610 was tested in the presence of the indicated concentrations of norspermidine (FIG. 1D) or spermidine (FIG. 1E).
To identify features of norspermidine important for its biofilm disassembly activity, we tested a library of polyamines in our biofilm inhibition assay (FIGS. 9A, 9B, 10 and Table 2).
The effect of polyamines on pellicle formation by B. subtilis was examined. B. subtilis wild-type cells were grown to a mid-logarithmic phase and diluted 1:1000 in biofilm media applied with each polyamine to the final concentration of 50 μM.
The effect of cyclic polyamines on biofilm formation by B. subtilis was examined. B. subtilis wild-type cells were grown to a mid-logarithmic phase and diluted 1:1000 in biofilm media (18A) or in a medium applied with cyclic compound 1,5,9-Triazacyclododecane to the final concentration of 50 μM (18B).

[2] = tested on: B. subtilis wild-type cells; assay: Biofilm formation on solid biofilm medium, B. subtilis; type: cell-based, Bacillus subtilis; conditions: 1 μl of cells mixed with 1 μl (1 mM) polyamine
Description: B. subtilis wild-type cells were grown to a mid-logarithmic phase and 1 μl of cells was mixed with 1 μl (1 mM) of each polyamine. The mixture was plated on solid biofilm medium.
B. subtilis wild-type cells were grown to a mid-logarithmic phase and 1 μl of cells was either mixed with PBS (18C) or mixed with 1 μl (1 mM) of each polyamine (18D). The mixture was plated on solid biofilm medium. “3*” refers to 1,5,9-Triazacyclododecane.

[3] = tested on: exopolysaccharide and TasA of B. subtilis NCBI 3610; assay: Fluorescence microscopy of matrix components (concanavalin A-Texas Red, TasA-mCherry), B. subtilis; type: cell-based, Bacillus subtilis; conditions: norspermidine 25 μM, spermidine 1 mM
Source text: The cells were washed in PBS and stained for exopolysaccharide with a conjugate of concanavalin A with Texas-Red.
[…] Cells were washed in PBS, and visualized by fluorescence microscopy.
To investigate further, exopolysaccharide was visualized by fluorescence microscopy using a conjugate of the carbohydrate-binding protein concanavalin A with Texas Red (FIG. 5) (McSwain et al., 2005). As evidence of specificity, the conjugate decorated wild-type cells but not cells from a mutant (Aeps) blocked in exopolysaccharide production (FIG. 6A). Indeed, at an exposure at which concanavalin A staining with the wild type strain gave an extremely bright fluorescent signal, little or no signal could be detected for the Aeps mutant, except at long exposures and enhanced brightness (FIG. 6A). Next, we investigated the effects of norspermidine and spermidine. […] Therefore, the difference in the staining was evidently due to differential levels of cell-associated exopolysaccharide. […] Thus, while not being bound to any theory, it is believed that norspermidine disrupts the matrix and by targeting exopolysaccharide.

[4] = tested on: exopolysaccharide of S. aureus cells; assay: Fluorescence microscopy of exopolysaccharide staining, S. aureus; type: cell-based, Staphylococcus aureus
[5] = tested on: exopolysaccharide of E. coli cells; assay: Fluorescence microscopy of exopolysaccharide staining, E. coli; type: cell-based, Escherichia coli
Source text: In testing E. coli, the biofilm-proficient strain MC4100 was selected because a major component of exopolysacchride is colanic acid (Danese et al., 2000; Price and Raivio, 2009).

[6] = B. subtilis biofilm inhibition assay, library of polyamines

Row | Molecule | minimal effective concentration [1, 6] [µM] | other results
1 | 1,3-diaminopropane [Molecule 6] |  | MBIC- Minimal Biofilm Inhibitory Concentration [1, 6]: 2500 to 5000 µM; concentration above which inhibition of biofilm formation is observed [1]: > 5 mM
2 | NCCCCNCCCN [Molecule 3, 1,8-diamino-4-azaoctane, reference compound] |  | concentration above which inhibition of biofilm formation is observed ([1]; listed as spermidine): > 2 mM; inhibition of pellicle formation at 50 μM [1]: do not; inhibition of biofilm formation on solid biofilm medium [2]: do not; pattern of concanavalin A-Texas Red staining of exopolysaccharide [3]: No such effect; staining of exopolysaccharide, S. aureus cells [4]: not; staining of exopolysaccharide, E. coli cells [5]: not
3 | NCCCCNCCCN [Molecule 3, spermidine] | 5000 | 
4 | NCCCNCCCCNCCCN [Molecule 4, 1,12-diamino-4,9-diazaoctane, reference compound] | 2500 | 
5 | NCCCCN [Molecule 5, 1,4-diaminobutane, reference compound] | 2000 to 3000 | 
6 | CN(C)CCCN(C)CCCN(C)C [Molecule 7, N^1-(3-(dimethylamino)propyl)-N^1,N^3,N^3-trimethylpropane-1,3-diamine] | > 5000 | 
7 | CN(C)CCCNCCCN(C)C [Molecule 8, N^1-(3-(dimethylamino)propyl)-N^3, N^3-dimethylpropane-1,3-diamine] | > 5000 | 
8 | CN(CCCN)CCCN [Molecule 9, (3-aminopropyl)-N^1-methylpropane-1,3-diamine] | > 5000 | 
9 | NCCCOCCCN [Molecule 10, 3,3′-oxybis(propan-1-amine)] | 5000 | 
10 | CCOC(=O)CCC(=O)CCC(=O)OCC [Molecule 11, Diethyl 4-oxoheptanedioate] | > 5000 | 
11 | c1cc2ccc1CNCCCNCCCNCc1ccc(cc1)CNCCCNCCCNC2 [Molecule 12, 3,7,11,18,22,26-Hexaazatricyclo[26.2.2.213,16]tetratriaconta-13,15,28,30,31,33-hexaene] | 500 | biofilm-inhibitory activity against B. subtilis ([1]; library of polyamines): active
12 | CCCCCCCCCCCCNCCCNCCCNCCCCCCCCCCCC [Molecule 13, N^1-dodecyl-N^3-(3-(dodecylamino)propyl)propane-1,3-diamine] | 100 | biofilm-inhibitory activity against B. subtilis ([1]; library of polyamines): active
13 | Cc1c(Cc2[nH]c(C(=O)OC(C)(C)C)c(C)c2C)[nH]c(Cc2[nH]c(C(=O)OC(C)(C)C)c(C)c2C)c1C [Molecule 14, di-tert-butyl 5,5′-((3,4-dimethyl-1H-pyrrole-2,5-diyl)bis(methylene))bis(3,4-dimethyl-1H-pyrrole-2-carboxylate)] | 500 to 700 | biofilm-inhibitory activity against B. subtilis ([1]; library of polyamines): active
14 | NNC(=O)Cc1ccc(CC(=O)NN)[nH]1 [Molecule 15, 2,2′-(1H-pyrrole-2,5-diyl)di(acetohydrazide)] | > 5000 | 
15 | CN(C)N(CCC(N)=O)CCC(N)=O [Molecule 16, 3,3′-(2,2-dimethylhydrazine-1,1-diyl)dipropanamide] | > 5000 | 
16 | O=C(NCCCNCCCNC(=O)C(O)C(O)C(O)C(O)CO)C(O)C(O)C(O)C(O)CO (centres unmarked) [Molecule 17, N,N′-(azanediylbis(propane-3,1-diyl))bis(2,3,4,5,6-pentahydroxyhexanamide)] | > 5000 | 
17 | NCCCCCN [Molecule 19, pentane-1,5-diamine, reference compound] | 3000 | 
18 | OCCCNCCCO [Molecule 20, 3,3′-azanediylbis(propan-1-ol)] | > 5000 | 
19 | NCCCN(CCCN)CCCN [Molecule 21, N^1,N^1-bis(3-aminopropyl)propane-1,3-diamine] | 200 | biofilm-inhibitory activity against B. subtilis ([1]; library of polyamines): did not block activity
20 | C1CNCCCNCCCNC1 [c, 1,5,9-triazacyclododecane] |  | inhibition of pellicle formation at 50 μM [1]: inhibits biofilm formation; inhibition of biofilm formation on solid biofilm medium [2]: inhibits biofilm formation
21 | C1COCCN1 [morpholine, reference compound] |  | inhibition of pellicle formation at 100 μM ([1]; NCBI3610 in fresh medium, 100 μM (FIG. 1B)): inactive

— US20140056951A1, “METHODS AND COMPOSITIONS FOR TREATING BIOFILMS” (PRESIDENT AND FELLOWS OF HARVARD COLLEGE, priority 2011, published 2014)
